In PubChem BioAssay (NCI):
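Protocol summary: plate cells (96-well), add compound at 5 concentrations, incubate 48 h, interpolate endpoints linearly. Here, GI50 denotes the concentration required for 50% inhibition of growth. Definition used: TGI = concentration required for complete inhibition of growth.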

How the values were obtained:
Assay in all cases: inhibition of tumour cell growth, NCI panel, 48 h
KM12 colon = tested on: KM12 colon
UO-31 renal = tested on: UO-31 renal
MDA-MB-231 breast = tested on: MDA-MB-231 breast
OVCAR-5 ovarian = tested on: OVCAR-5 ovarian
IGROV1 ovarian = tested on: IGROV1 ovarian
UACC-257 melanoma = tested on: UACC-257 melanoma
K-562 leukemia = tested on: K-562 leukemia
PC-3 prostate = tested on: PC-3 prostate
CAKI-1 renal = tested on: CAKI-1 renal
NCI-H226 lung = tested on: NCI-H226 lung
COLO 205 colon = tested on: COLO 205 colon
EKVX NSCLC = tested on: EKVX NSCLC
TK-10 renal = tested on: TK-10 renal
NCI/ADR-RES ovarian = tested on: NCI/ADR-RES ovarian
SW-620 colon = tested on: SW-620 colon
HCT-15 colon = tested on: HCT-15 colon
NCI-H460 lung = tested on: NCI-H460 lung
OVCAR-8 ovarian = tested on: OVCAR-8 ovarian
HOP-62 NSCLC = tested on: HOP-62 NSCLC
HS 578T breast = tested on: HS 578T breast
HCT-116 colon = tested on: HCT-116 colon
T-47D breast = tested on: T-47D breast
M14 melanoma = tested on: M14 melanoma
SK-MEL-28 melanoma = tested on: SK-MEL-28 melanoma
DU-145 prostate = tested on: DU-145 prostate
HT29 colon = tested on: HT29 colon
ACHN renal = tested on: ACHN renal
A549 NSCLC = tested on: A549 NSCLC
A498 renal = tested on: A498 renal
BT-549 breast = tested on: BT-549 breast
U251 CNS = tested on: U251 CNS
SNB-75 CNS = tested on: SNB-75 CNS
MCF7 breast = tested on: MCF7 breast
MDA-MB-435 = tested on: MDA-MB-435
786-0 renal = tested on: 786-0 renal
CCRF-CEM leukemia = tested on: CCRF-CEM leukemia
LOX IMVI melanoma = tested on: LOX IMVI melanoma
SK-OV-3 ovarian = tested on: SK-OV-3 ovarian
SK-MEL-2 melanoma = tested on: SK-MEL-2 melanoma
SNB-19 CNS = tested on: SNB-19 CNS
OVCAR-3 ovarian = tested on: OVCAR-3 ovarian
UACC-62 melanoma = tested on: UACC-62 melanoma
HCC-2998 colon = tested on: HCC-2998 colon
SK-MEL-5 melanoma = tested on: SK-MEL-5 melanoma
RXF 393 renal = tested on: RXF 393 renal
SF-539 CNS = tested on: SF-539 CNS
SF-268 CNS = tested on: SF-268 CNS
MALME-3M melanoma = tested on: MALME-3M melanoma
NCI-H522 lung = tested on: NCI-H522 lung
HL-60(TB) leukemia = tested on: HL-60(TB) leukemia
NCI-H23 lung = tested on: NCI-H23 lung
SF-295 CNS = tested on: SF-295 CNS
OVCAR-4 ovarian = tested on: OVCAR-4 ovarian
HOP-92 NSCLC = tested on: HOP-92 NSCLC
MOLT-4 leukemia = tested on: MOLT-4 leukemia
SN12C renal = tested on: SN12C renal

## CC1CN(S(=O)(=O)c2oc(-c3ccc(Cl)cc3)nc2C#N)CC(C)O1 (configuration not stated)
KM12 colon
  GI50: 10.3 µM
  TGI: 23.5 µM
UO-31 renal
  GI50: 1.56 µM
  TGI: 2.91 µM
MDA-MB-231 breast
  GI50: 1.91 µM
  TGI: 3.8 µM
OVCAR-5 ovarian
  GI50: 2.07 µM
  TGI: 4.44 µM
IGROV1 ovarian
  GI50: 1.87 µM
  TGI: 3.69 µM
UACC-257 melanoma
  GI50: 2.15 µM
  TGI: 6.34 µM
K-562 leukemia
  GI50: 2.07 µM
  TGI: > 100 µM
PC-3 prostate
  GI50: 1.97 µM
  TGI: 4.04 µM
CAKI-1 renal
  GI50: 1.56 µM
  TGI: 2.93 µM
NCI-H226 lung
  GI50: 18.1 µM
  TGI: 39.9 µM
COLO 205 colon
  GI50: 2.04 µM
  TGI: 4.35 µM
EKVX NSCLC
  GI50: 7.34 µM
  TGI: 27.9 µM
TK-10 renal
  GI50: 1.75 µM
  TGI: 3.26 µM
NCI/ADR-RES ovarian
  GI50: 10.7 µM
  TGI: 65.5 µM
SW-620 colon
  GI50: 1.36 µM
  TGI: 3.09 µM
HCT-15 colon
  GI50: 1.41 µM
  TGI: 3.04 µM
NCI-H460 lung
  GI50: 11.5 µM
  TGI: 26 µM
OVCAR-8 ovarian
  GI50: 3.19 µM
  TGI: 21.2 µM
HOP-62 NSCLC
  GI50: 14 µM
  TGI: 42.2 µM
HS 578T breast
  GI50: 3.92 µM
  TGI: 27.2 µM
HCT-116 colon
  GI50: 1.59 µM
  TGI: 3.13 µM
T-47D breast
  GI50: 2.3 µM
  TGI: 6.24 µM
M14 melanoma
  GI50: 1.62 µM
  TGI: 3.39 µM
SK-MEL-28 melanoma
  GI50: 1.81 µM
  TGI: 3.38 µM
DU-145 prostate
  GI50: 1.92 µM
  TGI: 4.1 µM
HT29 colon
  GI50: 2.06 µM
  TGI: 4.11 µM
ACHN renal
  GI50: 1.74 µM
  TGI: 3.13 µM
A549 NSCLC
  GI50: 15.5 µM
  TGI: 32.9 µM
A498 renal
  GI50: 14.4 µM
  TGI: 27.5 µM
BT-549 breast
  GI50: 1.97 µM
  TGI: 4.49 µM
U251 CNS
  GI50: 9.4 µM
  TGI: 22.7 µM
SNB-75 CNS
  GI50: 10.6 µM
  TGI: 22.7 µM
MCF7 breast
  GI50: 1.59 µM
  TGI: 3.94 µM
MDA-MB-435
  GI50: 1.89 µM
  TGI: 4.01 µM
786-0 renal
  GI50: 1.62 µM
  TGI: 3.3 µM
CCRF-CEM leukemia
  GI50: 0.505 µM
  TGI: 4.24 µM
LOX IMVI melanoma
  GI50: 0.926 µM
  TGI: 2.35 µM
SK-OV-3 ovarian
  GI50: 25.1 µM
  TGI: 70.6 µM
SK-MEL-2 melanoma
  GI50: 4.1 µM
  TGI: 14.6 µM
SNB-19 CNS
  GI50: 12.5 µM
  TGI: 25 µM
OVCAR-3 ovarian
  GI50: 1.56 µM
  TGI: 3.12 µM
UACC-62 melanoma
  GI50: 3.08 µM
  TGI: 11 µM
HCC-2998 colon
  GI50: 2.27 µM
  TGI: 5.43 µM
SK-MEL-5 melanoma
  GI50: 2.27 µM
  TGI: 5.16 µM
RXF 393 renal
  GI50: 1.69 µM
  TGI: 3.15 µM
SF-539 CNS
  GI50: 1.78 µM
  TGI: 3.28 µM
SF-268 CNS
  GI50: 1.93 µM
  TGI: 4.14 µM
MALME-3M melanoma
  GI50: 1.57 µM
  TGI: 2.96 µM
NCI-H522 lung
  GI50: 0.945 µM
  TGI: 2.79 µM
HL-60(TB) leukemia
  GI50: 2.09 µM
  TGI: 5.84 µM
NCI-H23 lung
  GI50: 3.99 µM
  TGI: 15.9 µM
SF-295 CNS
  GI50: 13.8 µM
  TGI: 27.2 µM
OVCAR-4 ovarian
  GI50: 2.02 µM
  TGI: 4.65 µM
HOP-92 NSCLC
  GI50: 1.78 µM
  TGI: 3.45 µM
MOLT-4 leukemia
  GI50: 1.19 µM
  TGI: 4.5 µM
SN12C renal
  GI50: 1.7 µM
  TGI: 3.23 µM
